Laboratory results: US7183112B2, “Uses for anti-malarial therapeutic agents” (APT Pharmaceuticals, LLC, priority 1999, dated 2007)
Values joined by “and” are separate entries in the source; they are usually repeats but may differ in a detail not shown here. Equal values may be shown once. “Also recorded” adds a separate entry of the source.

Assays:
[1] = test system: Ascaris-sensitized sheep; assay: Airway responsiveness to inhaled carbachol (PC400), Examples 1-2; assay type: in vivo; conditions: for ORC #2 (24 P-Ag.) (carbachol reactivity, PC 400) / ORC #1 BSLN. (carbachol reactivity, PC 400): Example 2, aerosol 40 mg b.i.d. (2 mg/kg/day); for ORC #2 (24 P-Ag.) (carbachol reactivity, PC 400): 24 hour post-antigen challenge; for ORC #1 BSLN. (carbachol reactivity, PC 400): baseline
Experimental: Dose Response Curves to Inhaled Carbachol: For the carbachol dose response curves, measurements of SRL were repeated immediately after inhalation of buffer and after each administration of 10 breaths of increasing concentrations of carbachol solution (0.25%, 0.5%, 1.0%, 2.0% and 4.0% w/v). To assess airway responsiveness, the cumulative carbachol dose in breath units (BU) that increased SRL 400% over the post-buffer value (i.e. PC400) was calculated from the dose response curve. One breath unit was defined as one breath of a 1% w/v carbachol solution.
(§1) At 3 to 4 days before treatment was begun, baseline airway responsiveness, to aerosol carbachol (i.e., PC400) was determined and a baseline bronchial biopsy performed. […] The animals were treated two times a day for 3 days and then, on the fourth day, at 0.5 hours before antigen challenge and again at 4 hours after challenge. On the antigen-challenge day, SRL was measured and the animals were than treated with HCQ designated compound. SRL was remeasured 0.5 h after treatment (just before challenge) and the animals were then challenged with antigen. SRL was then remeasured immediately after.
(§2) On the fourth day, they received an additional treatment one-half hour prior to antigen challenge.

[2] = test system: Ascaris-sensitized sheep; assay: Antigen-induced changes in specific lung resistance (early and late responses), Examples 1-2; assay type: in vivo; conditions: for Specific resistance, +1 HR % / Specific resistance, +1 HR Srl: 1 h post antigen; for Specific resistance, +2 HRS % / Specific resistance, +2 HRS Srl: 2 h post antigen; for Specific resistance, P-ASC % / Specific resistance, P-ASC Srl: immediately post Ascaris antigen; for Specific resistance, P-pl/dg % (immediate) / Specific resistance, P-pl/dg Srl (immediate): immediately post drug; for Specific resistance, P-pl/dg % (just before Ag) / Specific resistance, P-pl/dg Srl (just before Ag): post drug, just before antigen; for Specific resistance, +3 HRS % / Specific resistance, +3 HRS Srl: 3 h post antigen; for Specific resistance, +4 HRS % / Specific resistance, +4 HRS Srl: 4 h post antigen; for Specific resistance, +5 HRS % / Specific resistance, +5 HRS Srl: 5 h post antigen; for Specific resistance, +7 HRS % / Specific resistance, +7 HRS Srl: 7 h post antigen; for Specific resistance, +7.5 HRS % / Specific resistance, +7.5 HRS Srl: 7.5 h post antigen; for Specific resistance, +8 HRS % / Specific resistance, +8 HRS Srl: 8 h post antigen
Experimental: All procedures were approved by the Mount Sinai Medical Center Animal Research Committee, which is responsible for assuring the humane care and use of experimental animals.
Measurement of Airway Mechanics: The unsedated sheep were restrained in a cart in the prone position with their heads immobilized. After topical anesthesia of the nasal passages with 2% lidocaine solution, a balloon catheter was advanced through one nostril into the lower esophagus. The animals were […] with a cuffed endotracheal tube through the other nostril using a flexible fiberoptic bronchoscope as a guide. […] Pleural pressure was estimated with the esophageal balloon catheter (filled with one ml of air) which was positioned 5–10 cm from the gastroesophageal junction. […] Once the balloon was placed, it was secured so that it remained in position for the duration of the experiment. Lateral pressure in the trachea was-measured with a sidehole catheter (inner dimension, 2.5 mm) advanced through and positioned distal to the tip of the endotracheal tube. Transpulmonary pressure, the difference between tracheal and pleural pressure, was measured with a differential pressure transducer catheter system. For the measurement of pulmonary resistance (RL), the proximal end of the endotracheal tube was connected to a pneumotachograph (Fleisch No. 1; Dyna Sciences, Inc., Blue Bell, Pa.). […] The mean of at least five breaths, free of swallowing artifact, was used to obtain RL in cm H2O/L/s. Immediately after the measurement of RL, thoracic gas volume (Vtg) was measured in a constant-volume body plethysmograph to obtain specific lung resistance (SRL=RL×Vtg) in L×cm H2O/L/s.
Aerosol Delivery Systems: Aerosols of Ascaris suum extract (diluted 20:1 with phosphate buffered saline; 82,000 PNU/ml) were generated using a disposable medical nebulizer (Raindrop^R, Puritan Bennett), which produces an aerosol with a mass median aerodynamic diameter of 3.2 μm (geometric standard deviation, 1.9) as determined by a 7 stage Andersen cascade impactor. The output from the nebulizer was directed into a plastic T-piece, one end of which was connected to the inspiratory port of a Harvard respirator. […] The aerosol was delivered at a tidal volume of 500 ml and a rate of 20 breaths per minute for 20 minutes. Each sheep was challenged with an equivalent dose of antigen (400 breaths) in the control and drug trials. Carbachol aerosols were also generated with this same nebulizer system.
as §1, with “On the antigen-challenge day, SRL was measured and the animals were than treated with HCQ designated compound.” left out
as §2

[3] = test system: IL-4; conditions: Seggev J Immunol 150:62A; cited from earlier work
[4] = Example 1, aerosol 30 mg/animal (0.78 mg/kg) twice a day, Mean
[5] = Example 1, aerosol 30 mg/animal (0.78 mg/kg) twice a day, individual sheep
[6] = Example 2, aerosol 40 mg b.i.d. (2 mg/kg/day)
[7] = Example 2, aerosol 40 mg b.i.d. (2 mg/kg/day), Mean of 2 sheep
[8] = Example 2, aerosol 40 mg b.i.d. (2 mg/kg/day), individual sheep
[9] = Example 2, aerosol 40 mg b.i.d. (2 mg/kg/day), 6 h post antigen, Mean of 2 sheep
[10] = Example 2, aerosol 40 mg b.i.d. (2 mg/kg/day), 6 h post antigen, individual sheep
[11] = Example 2, aerosol 40 mg b.i.d. (2 mg/kg/day), +6 HRS, individual sheep
[12] = inhaled (nebulized), summary of animal studies

CCN(CCO)CCCC(C)Nc1ccnc2cc(Cl)ccc12 (centres unmarked) [HCQ, hydroxychloroquine]
ORC #2 (24 P-Ag.) (carbachol reactivity, PC 400) ([1]; Mean of 2 sheep): 15.82 breath units
ORC #2 (24 P-Ag.) (carbachol reactivity, PC 400) ([1]; individual sheep): 15.86 breath units and 15.77 breath units
ORC #1 BSLN. (carbachol reactivity, PC 400) ([1]; Mean of 2 sheep): 12.74 breath units
ORC #1 BSLN. (carbachol reactivity, PC 400) ([1]; individual sheep): 10.65 breath units and 14.83 breath units
effect on bronchial hyperresponsiveness ([1]; inhaled (nebulized), twenty-four hours later, summary of animal studies): continued effect at blocking
Specific resistance, +1 HR % [2, 4]: 38%
Specific resistance, +1 HR Srl [2, 4]: 1.39 L×cm H2O/L/s
Specific resistance, +1 HR % [2, 5]: 32% and 43% and 30%
Specific resistance, +1 HR Srl [2, 5]: 1.35 L×cm H2O/L/s and 1.49 L×cm H2O/L/s
Specific resistance, +2 HRS % [2, 4]: 42%
Specific resistance, +2 HRS Srl [2, 4]: 1.44 L×cm H2O/L/s
Specific resistance, +2 HRS % [2, 5]: 11% and 74% and 4%
Specific resistance, +2 HRS Srl [2, 5]: 1.13 L×cm H2O/L/s and 1.74 L×cm H2O/L/s and 1.2 L×cm H2O/L/s
Specific resistance, P-ASC % [2, 4]: 95%
Specific resistance, P-ASC Srl [2, 4]: 1.97 L×cm H2O/L/s
Specific resistance, P-ASC % [2, 5]: 140% and 49% and 189%
Specific resistance, P-ASC Srl [2, 5]: 2.45 L×cm H2O/L/s and 1.49 L×cm H2O/L/s and 3.32 L×cm H2O/L/s
Specific resistance, P-pl/dg % (immediate) [2, 4]: 10%
Specific resistance, P-pl/dg Srl (immediate) [2, 4]: 1.11 L×cm H2O/L/s
Specific resistance, P-pl/dg % (immediate) [2, 5]: 18% and 2% and 19%
Specific resistance, P-pl/dg Srl (immediate) [2, 5]: 1.20 L×cm H2O/L/s and 1.02 L×cm H2O/L/s and 1.37 L×cm H2O/L/s
Specific resistance, P-pl/dg % (just before Ag) [2, 4]: 2%
Specific resistance, P-pl/dg Srl (just before Ag) [2, 4]: 1.03 L×cm H2O/L/s
Specific resistance, P-pl/dg % (just before Ag) [2, 5]: 9% and −5% and −2%
Specific resistance, P-pl/dg Srl (just before Ag) [2, 5]: 1.11 L×cm H2O/L/s and 0.95 L×cm H2O/L/s and 1.13 L×cm H2O/L/s
effect on acute reactions [2, 6]: not inhibited
effect on late phase asthmatic reactions [2, 6]: virtually completely blocked
Specific resistance, +1 HR % [2, 7]: 132%
Specific resistance, +1 HR Srl [2, 7]: 2.43 L×cm H2O/L/s
Specific resistance, +1 HR % [2, 8]: 171% and 93%
Specific resistance, +1 HR Srl [2, 8]: 2.76 L×cm H2O/L/s and 2.10 L×cm H2O/L/s
Specific resistance, +2 HRS % [2, 7]: 69%
Specific resistance, +2 HRS Srl [2, 7]: 1.74 L×cm H2O/L/s
Specific resistance, +2 HRS % [2, 8]: 102% and 36%
Specific resistance, +2 HRS Srl [2, 8]: 2.06 L×cm H2O/L/s and 1.48 L×cm H2O/L/s
Specific resistance, +3 HRS % [2, 7]: 50%
Specific resistance, +3 HRS Srl [2, 7]: 1.58 L×cm H2O/L/s
Specific resistance, +3 HRS % [2, 8]: 54% and 46%
Specific resistance, +3 HRS Srl [2, 8]: 1.57 L×cm H2O/L/s and 1.59 L×cm H2O/L/s
Specific resistance, +4 HRS % [2, 7]: 19%
Specific resistance, +4 HRS Srl [2, 7]: 1.26 L×cm H2O/L/s
Specific resistance, +4 HRS % [2, 8]: 10% and 28%
Specific resistance, +4 HRS Srl [2, 8]: 1.12 L×cm H2O/L/s and 1.39 L×cm H2O/L/s
Specific resistance, +5 HRS % [2, 7]: 17%
Specific resistance, +5 HRS Srl [2, 7]: 1.23 L×cm H2O/L/s
Specific resistance, +5 HRS % [2, 8]: 36% and −2%
Specific resistance, +5 HRS Srl [2, 8]: 1.39 L×cm H2O/L/s and 1.07 L×cm H2O/L/s
Specific resistance, +6 HRS % [2, 9]: 18%
Specific resistance, +6 HRS Srl [2, 9]: 1.24 L×cm H2O/L/s
Specific resistance, +6 HRS % [2, 10]: 20% and 16%
Specific resistance, +6 HRS Srl [2, 10]: 1.22 L×cm H2O/L/s and 1.26 L×cm H2O/L/s
Specific resistance, +7 HRS % [2, 7]: 16%
Specific resistance, +7 HRS Srl [2, 7]: 1.23 L×cm H2O/L/s
Specific resistance, +7 HRS % [2, 8]: 20% and 13%
Specific resistance, +7 HRS Srl [2, 8]: 1.22 L×cm H2O/L/s and 1.23 L×cm H2O/L/s
Specific resistance, +7.5 HRS % [2, 7]: 35%
Specific resistance, +7.5 HRS Srl [2, 7]: 1.42 L×cm H2O/L/s
Specific resistance, +7.5 HRS % [2, 8]: 50% and 19%
Specific resistance, +7.5 HRS Srl [2, 8]: 1.53 L×cm H2O/L/s and 1.30 L×cm H2O/L/s
Specific resistance, +8 HRS % [2, 7]: 20%
Specific resistance, +8 HRS Srl [2, 7]: 1.27 L×cm H2O/L/s
Specific resistance, +8 HRS % [2, 8]: 22% and 18%
Specific resistance, +8 HRS Srl [2, 8]: 1.24 L×cm H2O/L/s and 1.29 L×cm H2O/L/s
Specific resistance, +6 HRS Srl ([2]; Example 2, aerosol 40 mg b.i.d. (2 mg/kg/day), +6 HRS, Mean of 2 sheep): 1.21 L×cm H2O/L/s
Specific resistance, +6 HRS % [2, 11]: 8% and 21%
Specific resistance, +6 HRS Srl [2, 11]: 1.10 L×cm H2O/L/s and 1.32 L×cm H2O/L/s
Specific resistance, P-ASC % [2, 7]: 238%
Specific resistance, P-ASC Srl [2, 7]: 3.58 L×cm H2O/L/s
Specific resistance, P-ASC % [2, 8]: 196% and 280%
Specific resistance, P-ASC Srl [2, 8]: 3.02 L×cm H2O/L/s and 4.14 L×cm H2O/L/s
Specific resistance, P-pl/dg % (immediate) [2, 7]: 3%
Specific resistance, P-pl/dg Srl (immediate) [2, 7]: 1.08 L×cm H2O/L/s
Specific resistance, P-pl/dg % (immediate) [2, 8]: 13% and −7%
Specific resistance, P-pl/dg Srl (immediate) [2, 8]: 1.15 L×cm H2O/L/s and 1.01 L×cm H2O/L/s
Specific resistance, P-pl/dg % (just before Ag) [2, 7]: 1%
Specific resistance, P-pl/dg Srl (just before Ag) [2, 7]: 1.07 L×cm H2O/L/s
Specific resistance, P-pl/dg % (just before Ag) [2, 8]: −6% and 7%%
Specific resistance, P-pl/dg Srl (just before Ag) [2, 8]: 0.96 L×cm H2O/L/s and 1.17 L×cm H2O/L/s
Specific resistance, +6 HRS % ([2]; Example 2, aerosol 40 mg b.i.d. (2 mg/kg/day), second +6 HRS column (text: at 6.5 hours), Mean of 2 sheep): 14%
irritant effects / tolerability of aerosolized HCQ (airway resistance after inhalation) ([2]; aerosol, sheep, specific resistance pre- and immediately following application): well tolerated; also recorded: does not cause any major irritant effects
effect on immediate allergic-mediated bronchostrictive responses [2, 12]: partially blocks
effect on late-phase responses (four to 12 hours post-antigen challenge) [2, 12]: virtually eliminates
effect on the actions of IL-4 [3]: blocks
